Test results reported in US8394762B2, “Self-decontaminating coatings containing antimicrobial peptides” (The United States of America, as represented by the …, priority 2010, dated 2013).

Columns and labels:
[1] = tested on: Staphylococcus aureus (ATCC 25923); assay: Surface testing (log kill) of peptide-containing acrylic coatings, Gram-positive; type: cell-based; conditions: for Surface antimicrobial activity of coating (in words), Gram-positive / Gram Positive Sample 1 Log Kill / Gram Positive Sample 2 Log Kill / Gram Positive Sample 3 Log Kill / Gram Positive Average Log Kill: 1% (w/w) peptide in acrylic coating; for Gram Positive Sample 1 Log Kill / Gram Positive Sample 2 Log Kill / Gram Positive Sample 3 Log Kill / Gram Positive Average Log Kill: 2 hr contact; for Gram Positive Sample 1 Log Kill / Gram Positive Sample 2 Log Kill / Gram Positive Sample 3 Log Kill: 1×10^5 bacteria; for Gram Positive Average Log Kill: average of triplicate
Text: (§1) Bacteria and media: Bacterial strains were obtained from the American Type Culture Collection (ATCC, Manassas, Va.) Staphylococcus aureus (ATCC 25923) and Escherichia coli (ATCC 11229) were used for bacterial Gram-positive and Gram-negative challenges, respectively. Luria-Bertani (LB) media (Difco Laboratories, Detroit, Mich.), prepared as per the manufacturer's specifications, was used as a bacterial growth and dilution medium for preparation of bacteria for Gram-positive and Gram-negative challenges.
(§2) Peptides: Peptides Chr-1, Chr-3, Chr-1 Truncated, and Chr-3 Truncated were obtained from Biosynthesis, Inc. (Lewisville, Tex.). Peptides were synthesized then purified by HPLC, Peptides arrived lyophilized, and were resuspended in sterile H2O. For minimum inhibitory concentration (MIC) testing, this suspension was added to media as described below. For surface challenges, this peptide mixture was added to a commercial acrylate coating resin system at 1% (w/w) solids based on the solids of the polymer.
(§3) Coating preparation: Films were prepared by combining 25 mg of the respective peptide with 4.95 g acrylate resin (Minwax® Polycrylic®, a water borne polyacrylate resin, 50% w/w solids) with agitation. The final solution was allowed to stir for an additional 30 min and films were cast by brush onto a pre-cleaned aluminum foil. The coatings were allowed to cure at ambient conditions for 24 hours prior to microbial testing. Average thickness of films was determined by a QuaNix 4500 (Automation) paint thickness gauge.
(§4) Surface testing: Bacteria were grown at 37° C. Log phase cells were harvested by centrifugation, counted on a hemocytometer using bright field microscopy, pelleted by centrifugation at 4000×g for 10 min, and resuspended in a 0.5% NaCl solution at a concentration of 1×10^7 cfu/mL. To prevent desiccation of the bacteria during testing, a hydration chamber was prepared. The chamber consisted of a sterile 3×3 in gauze pad placed in the bottom of a sterile 150×15 mm Petri dish. The gauze pad was saturated with 5 mL of sterile water and the test samples placed on top. A 10 μL aliquot containing, 1×10^5 bacteria was added to each test coating (280 mm^2), and then placed in a hydration chamber at room temperature. After 2 hr of incubation, the remaining bacteria were recovered by placing the coating in a tube containing 5 mL sterile LB media, followed by 30 sec of vortexing. Serial dilutions were carried out, and incubated for 18 hr at 37° C. with agitation. Following incubation, the cultures were examined for the presence of turbidity, indicating bacterial growth. Each coating was tested in triplicate. […] All bacterial challenge procedures were conducted using standard aseptic techniques in a BSL-2 hood.

[2] = tested on: Gram-positive and Gram-negative bacteria; conditions: both Gram-positive and Gram-negative bacteria; Iijima et al. 2003; cited from earlier work
[3] = tested on: Staphylococcus aureus (ATCC 25923); assay: MIC testing of peptides in solution, Gram-positive; type: cell-based; conditions: peptide in solution, LB media, 18 hr 37° C., 1×10^5 CFU
Text: as §1
as §2, with “For surface challenges, this peptide mixture was added to a commercial acrylate coating resin system at 1% (w/w) solids based on the solids of the polymer.” left out
Bacterial challenge: MIC testing: To determine the minimum inhibitory concentration (MIC) of peptides, compounds were weighed and dissolved in sterile water. […] Log phase cells were harvested by centrifugation, counted on a hemocytometer using bright field microscopy, pelleted by centrifugation at 4000×g for 10 min, and resuspended in a 0.5% NaCl solution at a concentration of 1×10^7 cfu/mL. […] MIC was determined to be the lowest concentration of biocide that prevented visible bacterial growth at 18 hr.

eukaryotic cells = conditions: literature; cited from earlier work
[4] = tested on: Escherichia coli (ATCC 11229); assay: Surface testing (log kill) of peptide-containing acrylic coatings, Gram-negative; type: cell-based; conditions: for Gram Negative Sample 1 Log Kill / Gram Negative Sample 2 Log Kill / Gram Negative Sample 3 Log Kill / Gram Negative Average Log Kill: 2 hr contact; for Gram Negative Sample 1 Log Kill / Gram Negative Sample 2 Log Kill / Gram Negative Sample 3 Log Kill: 1×10^5 bacteria; for Gram Negative Average Log Kill: average of triplicate
Text: as §1, §2, §3, §4

[5] = Surface segregation of peptide, bromophenol blue staining; type: physicochemical; conditions: peptide in acrylic coating; for Molecules Peptide per mm^2 at surface of coating: absorbance at 600 nm
Protocol: as §3
Surface Segregation of Peptide: Each 280 mm^2 section of the test coating was submerged in 0.5% bromophenol blue for one minute. Coatings were then removed and washed three times with 20 mL di-H2O. Bromophenol blue was then recovered from the test samples using 0.05 M HCl in ethanol. Absorbance at 600 nm was determined using a Cary 5E UV-Vis-NIR (Varian, Walnut Creek, Calif.). Beer's Law was used to determine concentration of bromophenol blue and thus concentration of peptides at the surface of the coatings.
Bromophenol blue has been used extensively to quantify the amount of protein or peptide in a solution (Bonate, Anal Biochem 1988, 175, 300-4; Schosinsky et al., Clin Chem 1987, 33, 223-6). A test method to visualize surface peptide using bromophenol blue was adapted from these solution test methods. To determine the extent which peptides were segregated to the surface of test coatings, each coating was reacted with an aqueous solution containing 0.5% bromophenol blue. This solution provided molar excess of bromophenol blue that was able to undergo an acid-base reaction with the amines of the peptide at a 1:1 ratio. The reaction was then reversed, and the bromophenol blue recovered with […]. The absorbance of this solution at 600 nm was determined and Beer's Law was used to determine the concentration of bromophenol blue (FIG. 2). This could be directly converted into number of peptides at the surface and correlated directly to the effectiveness of each coating.

[6] = Surface energy and contact angle of peptide coatings (sessile drop); type: physicochemical; conditions: peptide in acrylic coating; for Critical Surface Energy: calculated from contact angle data; for Contact angle CH2OHCH2OH: ethylene glycol; for Contact angle CH2OHCH2OH / Contact angle CH2I2 / Contact angle H2O: 15 sec after application; for Contact angle CH2I2: methylene iodide; for Contact angle H2O: water
Protocol: Coating preparation: Films were prepared by combining 25 mg of the respective peptide with 4.95 g acrylate resin ([…]® Polycrylic®, a water borne polyacrylate resin, 50% w/w solids) with agitation. The final solution was allowed to stir for an additional 30 min and films were cast by brush onto a pre-cleaned aluminum foil. The coatings were allowed to cure at ambient conditions for 24 hours prior to microbial testing. Average thickness of films was determined by a QuaNix 4500 (Automation) paint thickness gauge. Surface Energy and Contact Angle: Surface energy and contact angle measurements were performed using a VCA 2500 video contact angle system by AST Products, Inc. Contact angle measurements using the sessile drop technique. An image was captured of the interface 15 sec after application and contact angle was measured. Due to the complex nature of coating and difficulty in ascertaining the surface segregating ability of the peptide. The surface contact angle method was used and subsequent critical surface energy calculations were based on the data obtained. In all cases the surface became more hydrophobic as indicated by the significant increase in contact angle for water. […] Upon subsequent analysis, a correlation was observed between critical surface energy and surface antimicrobial properties, especially Gram-positive, and to a much lesser extent Gram-negative.

Escherichia coli = assay: MIC testing of peptides in solution, Gram-negative; type: cell-based; conditions: peptide in solution, LB media, 18 hr 37° C., 1×10^5 CFU
[7] = 1% (w/w) peptide in acrylic coating

Substance | Surface antimicrobial activity of coating (in words), Gram-positive [1] | Gram Positive Sample 1 Log Kill [1] | Gram Positive Sample 2 Log Kill [1] | Gram Positive Sample 3 Log Kill [1] | Gram Positive Average Log Kill [1] | Antimicrobial activity concentration [2] | MIC Gram + [3] | Toxicity to eukaryotic cells (eukaryotic cells) | Gram Negative Sample 1 Log Kill [4, 7] | Gram Negative Sample 2 Log Kill [4, 7] | Gram Negative Sample 3 Log Kill [4, 7] | Gram Negative Average Log Kill [4, 7] | Molecules Peptide per mm^2 at surface of coating [5] | Critical Surface Energy [6] | Contact angle CH2OHCH2OH [6] | Contact angle CH2I2 [6] | Contact angle H2O [6] | MIC Gram − (Escherichia coli) | other results
Chr-3: Full length antimicrobial peptide Chrysophsin-3 from gills of red sea bream Chrysophrys major, SEQ. ID. NO. 3 (FIGLLISAGKAIHDLIRRRH; Chrysophrys major) | moderate activity | 1 | 1 | 1 | 1 | low micromolar | 0.00667 mg of peptide per mL of culture media | varying levels of toxicity | 0 | 0 | 0 | 0 | 1.9 × 10^13 Molecules Peptide per mm^2 | 97.22 dynes/cm | 63.02(±3.51) | 64.57(±3.52) | 43.88(±5.01) | 0.0667 mg of peptide per mL of culture media | Peptide at surface of coating, % of total peptide [5]: (~1%)
Chr-1: Full length antimicrobial peptide Chrysophsin-1 from gills of red sea bream Chrysophrys major, SEQ. ID. NO. 1 (FFWLIKGAIHAGKAIHGLIHRRRH; Chrysophrys major) | high activity | 4 | 4 | 3 | 3.6667 | low micromolar | 0.00667 mg of peptide per mL of culture media | varying levels of toxicity | 1 | 2 | 1 | 1.3333 | 6.8 × 10^13 Molecules Peptide per mm^2 | 131.6 dynes/cm | 60.77(±3.35) | 69.45(±4.81) | 53.05(±4.04) | 0.000667 mg of peptide per mL of culture media | Reduction of bacterial loads by coating ([1]; Gram-positive and Gram-negative together): at least 90%; Reduction of Gram-positive bacteria by peptide containing coating ([1]; after two hours): 99.9%; Surface antimicrobial activity of coating (in words), Gram-negative [4, 7]: high activity; Reduction of Gram-negative bacteria by peptide containing coating ([4]; after two hours): 90%
